Activity calls are given as the source filed them. No cut-off for these calls is given here.
What was measured:
[1] = system: Trypanosoma cruzi; assay: Antitrypanosomal activity against Trypanosoma cruzi Tulahuen C2C4 amastigotes infected in rat L6 cells after 96 hrs by photometric analysis; assay type: functional, organism-based; settings: Tulahuen C2C4, L6, 96 h
[2] = system: L6; assay: Cytotoxicity against rat L6 cells after 72 hrs by Alamar blue assay; assay type: cell-based; settings: L6, 72 h
[3] = system: Trypanosoma cruzi; assay: Ratio of Benznidazole IC50 to compound IC50 for Trypanosoma cruzi Tulahuen C2C4 amastigotes infected in rat L6 cells; assay type: functional
[4] = Metabolic stability in human liver microsomes assessed as CYP-dependent metabolism after 60 mins by LC-UV-MS analysis; assay type: ADME, Microsome; settings: 1 h
[5] = Selectivity index, ratio of IC50 for rat L6 cells to IC50 for Trypanosoma cruzi Tulahuen C2C4 amastigotes infected in rat L6 cells; assay type: toxicity, cell-based; settings: read-out: Ratio IC50
[6] = system: Plasmodium falciparum; assay: Antiplasmodial activity against erythrocytic stage of Plasmodium falciparum K1 after 48 hrs by [3H]-hypoxanthine incorporation assay; assay type: functional, organism-based
[7] = system: Leishmania donovani; assay: […] activity against Leishmania donovani MHOM-ET-67/L82 amastigotes after 72 hrs by Alamar blue assay; assay type: functional, organism-based; settings: MHOM-ET-67/L82, 72 h
[8] = system: Trypanosoma brucei rhodesiense; assay: Antitrypanosomal activity against Trypanosoma brucei rhodesiense STIB 900 trypomastigotes after 72 hrs by Alamar blue assay; assay type: functional, organism-based; settings: STIB 900, 72 h
[9] = target: Sterol 14-alpha demethylase (Trypanosoma cruzi (strain CL Brener)) (UniProt Q7Z1V1); assay: Inhibition of Trypanosoma cruzi CYP51
Sterol 14-alpha demethylase (Trypanosoma cruzi (strain CL Brener)), sequence (Q7Z1V1 whole entry, looked up): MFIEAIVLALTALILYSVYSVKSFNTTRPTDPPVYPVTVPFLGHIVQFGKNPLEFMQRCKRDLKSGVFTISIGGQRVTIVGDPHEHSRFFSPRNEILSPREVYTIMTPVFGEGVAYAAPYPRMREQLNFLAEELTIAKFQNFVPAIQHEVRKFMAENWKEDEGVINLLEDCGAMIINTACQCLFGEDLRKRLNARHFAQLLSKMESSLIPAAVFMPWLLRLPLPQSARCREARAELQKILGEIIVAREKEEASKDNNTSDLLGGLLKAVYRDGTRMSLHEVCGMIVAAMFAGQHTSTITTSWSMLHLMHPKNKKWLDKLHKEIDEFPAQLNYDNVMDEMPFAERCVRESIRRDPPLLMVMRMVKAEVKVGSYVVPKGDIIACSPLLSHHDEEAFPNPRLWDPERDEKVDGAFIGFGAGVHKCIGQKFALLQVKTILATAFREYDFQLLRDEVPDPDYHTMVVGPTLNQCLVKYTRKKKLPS

Compound	IC50 [1] [µM]	IC50 [6] [µM]	IC50 [8] [µM]	inhibition [9]	IC50 [2] [µM]	Ratio IC50 [3]	Stability [4]	selectivity ratio [5]	IC50 [7] [µM]
CC(C)c1ccc(NC(=O)O[C@H](Cn2ccnc2)c2ccc(Cl)cc2)cc1	0.0018	–	–	–	13.4	<=1000	Unstable	7470	–
O=C(Nc1cc(Cl)nc(Cl)c1)OC(Cn1ccnc1)c1ccc(Cl)cc1 (racemic)	0.036	1.5	34	–	27.2	–	–	749	11.4
O=C(O[C@H](Cn1ccnc1)c1ccccc1)c1ccc(-c2ccccc2)cc1	0.0038	–	–	–	18.2	<=1000	Unstable	4800	–
O=C(Nc1cc(Cl)nc(Cl)c1)O[C@H](Cn1ccnc1)c1ccc(Cl)cc1	0.0236	–	–	–	31.6	<=1000	–	1340	–
CC(C)c1ccc(NC(=O)OC(Cn2ccnc2)c2ccc(Cl)cc2)cc1 (racemic)	0.005	1.8	18.2	–	13	–	–	2490	7
CC(C)c1ccc(NC(=O)O[C@@H](Cn2ccnc2)c2ccc(Cl)cc2)cc1	0.112	–	–	–	14	–	–	125	–
O=C(Nc1ccnc(Cl)c1)OCCN1CCOCC1	175	79.8	230	inactive	238	–	–	1.3	190
COc1cc([C@@H]2c3cc4c(cc3[C@H](O)[C@H]3COC(=O)[C@H]23)OCO4)cc(OC)c1OC [PODOFILOX]	–	–	–	–	0.001	–	–	–	–
CC(C)c1ccc(NC(=O)OC(Cn2ccnc2)c2ccc(F)cc2)cc1 (racemic)	0.005	4.6	19.1	–	16.8	–	–	3360	15
CCCCCCCCCCCCCCCCOP(=O)([O-])OCC[N+](C)(C)C [MILTEFOSINE]	–	–	–	–	–	–	–	–	0.366

Now from value to compound, other results behind:

IC50 [1] [µM]	IC50 [6] [µM]	IC50 [8] [µM]	inhibition [9]	Compound	IC50 [2] [µM]	Ratio IC50 [3]	Stability [4]	selectivity ratio [5]	IC50 [7] [µM]
24.4	36.7	294	–	O=C(COc1ccccc1)OC(Cn1ccnc1)c1ccc(F)cc1 (racemic)	182	–	–	7.5	17.3
0.193	–	–	–	O=C(O[C@@H](Cn1ccnc1)c1ccccc1)c1ccc(-c2ccccc2)cc1	27.5	–	–	143	–
0.0972	–	–	–	O=C(Nc1cc(Cl)nc(Cl)c1)O[C@@H](Cn1ccnc1)c1ccc(Cl)cc1	15.4	–	–	158	–
1.67	–	–	–	O=C(Cn1ccnc1[N+](=O)[O-])NCc1ccccc1 [BENZNIDAZOLE]	–	–	–	–	–
0.014	2.2	42.1	–	O=C(OC(Cn1ccnc1)c1ccccc1)c1ccc(-c2ccccc2)cc1 (racemic)	23.6	–	–	1580	5.4
48.4	60.2	139	inactive	Cc1ncc([N+](=O)[O-])n1CCOC(=O)Nc1ccncc1Br	222	–	–	4.6	85.1
133	23.1	117	inactive	O=C(Nc1cc(Cl)nc(Cl)c1)OCCN1CCOCC1	79.3	–	–	0.6	123

Source: ChEMBL document CHEMBL2384990, “New Promising Compounds with in Vitro Nanomolar Activity against Trypanosoma cruzi” (ACS Med Chem Lett, 2013)
